Measured values taken from patent US20240409609A1, “REVERSIBLE LYSINE COVALENT MODIFIERS OF EGFR AND USES THEREOF” (Terremoto Biosciences, Inc., priority 2021, published 2024).

Experiments:
[1] = molecular target: EGFR WT (Homo sapiens (Human), UniProt P00533); assay: EGFR biochemical assay (AssayQuant chelation-enhanced fluorescence); conditions: 30 min preincubation, reaction time 360 min
[2] = molecular target: EGFR WT in Ba/F3 cells (Homo sapiens (Human), UniProt P00533); assay: Ba/F3 pEGFR assay (AlphaLISA p-EGFR Tyr1068); format: cell-based; conditions: 2 hrs treatment, media supplemented with EGF
Description: Cellular activity was determined using the Ba/F3 system for studying oncogenic mutant kinases (Warmuth 2007). […] Transduced cells were maintained in RPMI 1640 with 10% FBS. EGFR WT transduced cells were grown in media supplemented with EGF. To assay cellular activity of inhibitors, cells were treated with inhibitor from 1000X DMSO stock dilutions and incubated for 2 hrs at 37° C. 5% CO2. Subsequently, p-EGFR (Tyr1068) was quantified using a commercial sandwich immunoassay (PerkinElmer AlphaLISA SureFire assay; ALSU-PEGFR) according to the manufacturer's instructions. […] Curr Opin Oncol 19, 55-60 (2007), which is incorporated herein in its entirety.

Chain of EGFR WT in Ba/F3 cells (P00533 25-1210): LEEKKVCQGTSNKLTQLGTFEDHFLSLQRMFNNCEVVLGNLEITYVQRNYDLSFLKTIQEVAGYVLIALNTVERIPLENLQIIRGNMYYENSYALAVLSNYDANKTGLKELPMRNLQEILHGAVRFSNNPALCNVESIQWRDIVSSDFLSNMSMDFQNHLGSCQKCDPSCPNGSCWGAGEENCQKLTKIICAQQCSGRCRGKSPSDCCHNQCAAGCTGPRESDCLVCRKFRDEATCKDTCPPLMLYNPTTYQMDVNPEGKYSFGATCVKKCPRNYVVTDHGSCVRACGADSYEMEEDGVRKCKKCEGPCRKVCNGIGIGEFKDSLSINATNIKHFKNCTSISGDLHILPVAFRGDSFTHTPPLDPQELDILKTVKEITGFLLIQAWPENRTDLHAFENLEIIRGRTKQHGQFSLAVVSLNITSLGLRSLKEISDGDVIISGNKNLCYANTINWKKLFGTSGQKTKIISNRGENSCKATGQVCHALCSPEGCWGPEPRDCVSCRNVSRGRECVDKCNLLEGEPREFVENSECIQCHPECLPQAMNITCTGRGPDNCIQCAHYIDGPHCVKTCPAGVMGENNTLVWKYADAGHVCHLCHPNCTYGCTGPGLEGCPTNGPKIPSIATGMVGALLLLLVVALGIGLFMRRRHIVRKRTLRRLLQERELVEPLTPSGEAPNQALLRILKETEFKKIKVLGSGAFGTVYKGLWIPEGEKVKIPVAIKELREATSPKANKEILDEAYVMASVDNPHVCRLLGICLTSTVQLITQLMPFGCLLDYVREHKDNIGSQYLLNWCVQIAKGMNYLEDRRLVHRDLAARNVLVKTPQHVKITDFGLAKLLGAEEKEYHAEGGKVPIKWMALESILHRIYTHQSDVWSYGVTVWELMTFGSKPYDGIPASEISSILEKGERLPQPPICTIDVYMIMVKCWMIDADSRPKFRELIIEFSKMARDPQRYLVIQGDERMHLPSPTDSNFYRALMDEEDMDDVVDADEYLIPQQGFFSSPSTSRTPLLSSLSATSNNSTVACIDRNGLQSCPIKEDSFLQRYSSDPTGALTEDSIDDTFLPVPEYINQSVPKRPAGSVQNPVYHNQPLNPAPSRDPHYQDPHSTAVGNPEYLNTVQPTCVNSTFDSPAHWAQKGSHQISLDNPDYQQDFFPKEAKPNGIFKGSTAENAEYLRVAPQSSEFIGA
Chain of EGFR WT (P00533 668-1210): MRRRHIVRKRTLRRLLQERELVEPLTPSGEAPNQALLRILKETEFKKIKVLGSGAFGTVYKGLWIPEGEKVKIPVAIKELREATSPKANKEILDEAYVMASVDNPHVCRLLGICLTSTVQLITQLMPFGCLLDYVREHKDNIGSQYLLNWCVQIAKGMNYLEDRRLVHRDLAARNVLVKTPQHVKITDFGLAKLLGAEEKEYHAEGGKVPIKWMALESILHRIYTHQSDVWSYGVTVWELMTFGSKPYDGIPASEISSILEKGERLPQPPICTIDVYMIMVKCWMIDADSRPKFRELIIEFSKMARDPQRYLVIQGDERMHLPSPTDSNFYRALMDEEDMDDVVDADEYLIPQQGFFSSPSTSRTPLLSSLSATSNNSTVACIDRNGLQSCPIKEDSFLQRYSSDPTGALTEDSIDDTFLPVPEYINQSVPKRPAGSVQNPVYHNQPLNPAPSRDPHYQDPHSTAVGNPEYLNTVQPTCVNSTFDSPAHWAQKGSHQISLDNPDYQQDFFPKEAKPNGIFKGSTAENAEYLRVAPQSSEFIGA

In the case of `CC(C)c1ccc(N2CC(CS(C)(=O)=O)C2)c2cnc(Nc3ccnc(Oc4cccc(O)c4C=O)n3)cc12` [Compound 48], the IC50 [1] is reported as > 1 µM and the IC50 [2] is reported as > 10 µM.
In the case of `CN1CCN(Cc2ccc3[nH]/c(=N\C(=O)c4ccnc(-c5cnn(-c6cccc(O)c6C=O)c5)c4)n(CC(C)(C)O)c3c2)CC1` [Compound 88], the IC50 [1] is reported as 0.108 µM and the IC50 [2] is reported as > 9.97 µM.
With `CC(C)(O)Cn1/c(=N/C(=O)c2ccnc(N3CCN(c4cccc(O)c4C=O)CC3)c2)[nH]c2ccccc21` [Compound 131] the IC50 [1] was > 1 µM and the IC50 [2] was > 10 µM.
With `CN1CCN(Cc2ccc3[nH]/c(=N\C(=O)c4ccnc(C#Cc5cccc(NS(C)(=O)=O)c5C=O)c4)n(CC(C)(C)O)c3c2)CC1` [Compound 69] the IC50 [1] was 0.0582 µM and the IC50 [2] was > 10 µM.
In the case of `COc1cc(N(C)CCN(C)C)c(NC(C)=O)cc1Nc1nccc(-c2cn(Cc3ccc(C=O)c(O)c3)c3ccccc23)n1` [Compound 29], the IC50 [1] is reported as > 1 µM and the IC50 [2] is reported as > 10 µM.
For `CC(C)c1ccc(N2CC(CS(C)(=O)=O)C2)c2cnc(Nc3ccnc(N(C)Cc4cccc(C=O)c4O)n3)cc12` [Compound 49], the IC50 [1] was > 1 µM and the IC50 [2] was 2.29 µM.
In the case of `CN1CCN(Cc2ccc3[nH]/c(=N\C(=O)c4cc(F)nc(Oc5cccc(O)c5C=O)c4)n(CC(C)(C)O)c3c2)CC1` [Compound 60], the IC50 [1] is reported as 0.00829 µM and the IC50 [2] is reported as 2.85 µM.
Compound `CN1CCN(Cc2ccc3[nH]/c(=N\C(=O)c4cc(C#N)cc(Oc5cccc(O)c5C=O)c4)n(CC(C)(C)O)c3c2)CC1` [Compound 51] has an IC50 [1] of 0.00588 µM and an IC50 [2] of 1.9 µM.
Work on `CN1CCN(Cc2ccc3[nH]/c(=N\C(=O)c4ccnc(C#Cc5cccc(O)c5C=O)c4)n(CC(C)(C)O)c3c2)CC1` [Compound 62] yielded an IC50 [1] of 0.00705 µM and an IC50 [2] of 3.36 µM.
`CN1CCN(Cc2ccc3[nH]/c(=N\C(=O)c4ccnc(C#Cc5cncc(O)c5C=O)c4)n(CC(C)(C)O)c3c2)CC1` [Compound 100] was tested, and the IC50 [1] was 0.0743 µM and the IC50 [2] was > 10 µM.
`CN1CCN(c2ccc3[nH]/c(=N\C(=O)c4ccnc(Oc5cccc(O)c5C=O)c4)n(CC(C)(C)O)c3c2)CC1` [Compound 56] showed an IC50 [1] of 0.278 µM and an IC50 [2] of 0.763 µM.
In the case of `CC(C)(O)Cn1/c(=N/C(=O)c2ccnc(Nc3cccc(C=O)c3O)c2)[nH]c2ccccc21` [Compound 134], the IC50 [1] is reported as > 1 µM and the IC50 [2] is reported as > 10 µM.
In the case of `COc1cc(N2CCC(N3CCN(C)CC3)CC2)ccc1Nc1ncc(Cl)c(Nc2ccc(O)c(C=O)c2)n1` [Compound 35], the IC50 [1] is reported as 0.292 µM and the IC50 [2] is reported as > 10 µM.
In the case of `CN(C)C/C=C/C(=O)N1CCCC[C@@H](n2c(NC(=O)c3ccnc(-n4cc(-c5cccc(O)c5C=O)cn4)c3)nc3cccc(Cl)c32)C1` [Compound 125], the IC50 [1] is reported as 0.0294 µM and the IC50 [2] is reported as 4.9 µM.
For `COc1cc(N2CCC(N3CCN(C)CC3)CC2)ccc1Nc1ncc(-c2ccc(NC(C)=O)c(C=O)c2)c(Nc2ccccc2)n1` [Compound 20], the IC50 [1] was > 1 µM and the IC50 [2] was > 10 µM.
`CC(=O)Nc1cccc(-c2cnn(-c3cc(C(=O)/N=c4\[nH]c5ccc(CN6CCN(C)CC6)cc5n4CC(C)(C)O)ccn3)c2)c1C=O` [Compound 95] was tested, and the IC50 [1] was 0.721 µM and the IC50 [2] was 5.78 µM.
`O=Cc1c(O)cccc1Oc1cc(C(=O)/N=c2\[nH]c3ccccc3n2CCN2CCOCC2)ccn1` [Compound 123] was tested, and the IC50 [1] was 0.221 µM and the IC50 [2] was > 10 µM.
`CN1CCN(Cc2ccc3[nH]/c(=N\C(=O)c4ccnc(C#Cc5ccc(F)c(O)c5C=O)c4)n(CC(C)(C)O)c3c2)CC1` [Compound 72] was tested, and the IC50 [1] was 0.0078 µM and the IC50 [2] was > 10 µM.
For `CC(C)(O)Cn1/c(=N/C(=O)c2ccnc(Oc3cccc(O)c3C=O)c2)[nH]c2ccccc21` [Compound 121], the IC50 [1] was 0.0105 µM and the IC50 [2] was > 10 µM.
For `CC(C)(O)Cn1/c(=N/C(=O)c2ccnc(COc3cccc(O)c3C=O)c2)[nH]c2ccccc21` [Compound 133], the IC50 [1] was 0.316 µM and the IC50 [2] was > 10 µM.
Compound `CN1CCN(Cc2ccc3[nH]/c(=N\C(=O)c4ccnc(C#Cc5c(F)ccc(O)c5C=O)c4)n(CC(C)(C)O)c3c2)CC1` [Compound 57] has an IC50 [1] of 0.00603 µM and an IC50 [2] of 1.77 µM.
`CN1CCN(Cc2ccc3[nH]/c(=N\C(=O)c4ccnc(-n5cc(-c6cccc(O)c6C=O)cn5)c4)n(CC(C)(C)O)c3c2)CC1` [Compound 85] was tested, and the IC50 [1] was 0.0521 µM and the IC50 [2] was > 8.83 µM.
With `CC(C)Cn1/c(=N/C(=O)c2ccnc(Oc3cccc(O)c3C=O)c2)[nH]c2ccc(CN3CCN(C)CC3)cc21` [Compound 65] the IC50 [1] was 0.0101 µM and the IC50 [2] was 3.55 µM.
With `COc1cc(N(C)CCN(C)C)c(NC(C)=O)cc1Nc1nccc(-c2cn(Cc3cccc(O)c3C=O)c3ccccc23)n1` [Compound 28] the IC50 [1] was > 1 µM and the IC50 [2] was > 10 µM.
For `CN1CCN(Cc2ccc3[nH]/c(=N\C(=O)c4cc(Cl)nc(Cc5cccc(O)c5C=O)c4)n(CC(C)(C)O)c3c2)CC1` [Compound 86], the IC50 [1] was 0.0238 µM and the IC50 [2] was > 10 µM.
`CN1CCN(Cc2ccc3[nH]/c(=N\C(=O)c4cncc(Oc5cccc(O)c5C=O)n4)n(CC(C)(C)O)c3c2)CC1` [Compound 108] was tested, and the IC50 [1] was 0.081 µM and the IC50 [2] was > 10 µM.
`COCCN1CCN(Cc2ccc3[nH]/c(=N\C(=O)c4ccnc(Oc5cccc(O)c5C=O)c4)n(CC(C)(C)O)c3c2)CC1` [Compound 75] showed an IC50 [1] of 0.0146 µM and an IC50 [2] of 3 µM.
With `CN1CCN(Cc2ccc3[nH]/c(=N\C(=O)c4ccnc(Oc5ccccc5C=O)c4)n(CC(C)(C)O)c3c2)CC1` [Compound 92] the IC50 [1] was 0.296 µM and the IC50 [2] was 9.06 µM.
`CN1CCN(Cc2ccc3[nH]/c(=N\C(=O)c4cc(C=O)nc(Oc5cccc(O)c5C=O)c4)n(CC(C)(C)O)c3c2)CC1` [Compound 81] was tested, and the IC50 [1] was 0.028 µM and the IC50 [2] was > 10 µM.
For `CC(C)(O)Cn1/c(=N/C(=O)c2ccnc(Oc3cccc(O)c3C=O)c2)[nH]c2ccc(CN3CCC(C(C)(C)O)CC3)cc21` [Compound 80], the IC50 [1] was 0.0109 µM and the IC50 [2] was 4.77 µM.
For `COc1cc(N2CCC(N3CCN(C)CC3)CC2)ccc1Nc1ncc(-c2cccc(C=O)c2O)c(Nc2ccccc2)n1` [Compound 5], the IC50 [1] was 0.398 µM and the IC50 [2] was > 10 µM.
For `CNc1nc(Nc2ccc(N3CCC(N4CCN(C)CC4)CC3)cc2OC)ncc1-c1ccc(O)c(C=O)c1` [Compound 15], the IC50 [1] was 0.0191 µM and the IC50 [2] was 9.65 µM.
`CN1CCN(Cc2ccc3[nH]/c(=N\C(=O)c4ccnc(Oc5ccc(F)c(O)c5C=O)c4)n(CC(C)(C)O)c3c2)CC1` [Compound 77] was tested, and the IC50 [1] was 0.0237 µM and the IC50 [2] was > 8.08 µM.
For `CC(C)(O)Cn1/c(=N/C(=O)c2ccnc(-c3cccc(-c4cccc(O)c4C=O)c3)c2)[nH]c2ccccc21` [Compound 130], the IC50 [1] was 0.529 µM and the IC50 [2] was 6.43 µM.
In the case of `CN1CCN(Cc2ccc3[nH]/c(=N\C(=O)c4ccc(F)c(Oc5cccc(O)c5C=O)c4)n(CC(C)(C)O)c3c2)CC1` [Compound 110], the IC50 [1] is reported as 0.00501 µM and the IC50 [2] is reported as 1.49 µM.
For `COc1cc(N2CCC(N3CCN(C)CC3)CC2)ccc1Nc1ncc(-c2cc(C=O)c(O)cc2OC)c(Nc2ccccc2)n1` [Compound 13], the IC50 [1] was 0.094 µM and the IC50 [2] was > 10 µM.
For `CC(C)(O)Cn1/c(=N/C(=O)c2ccnc(-c3ccc(-c4cccc(O)c4C=O)cc3)c2)[nH]c2ccccc21` [Compound 132], the IC50 [1] was > 1 µM and the IC50 [2] was > 10 µM.
In the case of `CN1CCN(Cc2ccc3[nH]/c(=N\C(=O)c4cncc(Oc5cccc(O)c5C=O)c4)n(CC(C)(C)O)c3c2)CC1` [Compound 55], the IC50 [1] is reported as 0.00533 µM and the IC50 [2] is reported as 1.43 µM.
With `COc1cc(N2CCC(N3CCN(C)CC3)CC2)ccc1Nc1ncc(-c2cc(F)c(O)c(C=O)c2)c(Nc2ccccc2)n1` [Compound 9] the IC50 [1] was 0.00489 µM and the IC50 [2] was 0.0425 µM.
For `CC(C)(O)Cn1/c(=N/C(=O)c2ccnc(C#Cc3cccc(O)c3C=O)c2)[nH]c2ccc(CN3CCOCC3)cc21` [Compound 78], the IC50 [1] was 0.00881 µM and the IC50 [2] was > 10 µM.
In the case of `CN1CCN(Cc2ccc3[nH]/c(=N\C(=O)c4ccnc(Oc5cccc(O)c5C=O)c4F)n(CC(C)(C)O)c3c2)CC1` [Compound 82], the IC50 [1] is reported as 0.0679 µM and the IC50 [2] is reported as > 10 µM.
In the case of `CC(C)c1ccc(N2CC(CS(C)(=O)=O)C2)c2cnc(Nc3ccnc(-n4cc(-c5cccc(O)c5C=O)cn4)n3)cc12` [Compound 44], the IC50 [1] is reported as 0.197 µM and the IC50 [2] is reported as 6.85 µM.
In the case of `CC(C)(O)Cn1/c(=N/C(=O)c2ccnc(CCc3cccc(O)c3C=O)c2)[nH]c2ccccc21` [Compound 135], the IC50 [1] is reported as 0.0801 µM and the IC50 [2] is reported as 5.2 µM.
`CN1CCN(Cc2ccc3[nH]/c(=N\C(=O)c4ccnc(Oc5cccc(O)c5C=O)c4)n(CC(C)(C)O)c3c2)CC1` [Compound 64] was tested, and the IC50 [1] was 0.00896 µM and the IC50 [2] was 1.42 µM.
With `CN1CCN(C2CCN(c3ccc4c(c3)[nH]/c(=N\C(=O)c3ccnc(Oc5cccc(O)c5C=O)c3)n4CC(C)(C)O)CC2)CC1` [Compound 91] the IC50 [1] was 0.0493 µM and the IC50 [2] was > 10 µM.
`CC(C)(O)Cn1/c(=N/C(=O)c2ccnc(Oc3cccc(O)c3C=O)c2)[nH]c2ccc(N3CCOCC3)cc21` [Compound 74] gave an IC50 [1] of 0.00875 µM and an IC50 [2] of 3.23 µM.
`CC(C)(O)Cn1/c(=N/C(=O)c2ccnc(Oc3cccc(O)c3C=O)c2)[nH]c2ccc(CN3CCOCC3)cc21` [Compound 76] was tested, and the IC50 [1] was 0.0135 µM and the IC50 [2] was 2.37 µM.
In the case of `COc1cc(N2CCC(N3CCN(C)CC3)CC2)ccc1Nc1ncc(-c2ccc(C=O)c(O)c2)c(Nc2ccccc2)n1` [Compound 4], the IC50 [1] is reported as > 1 µM and the IC50 [2] is reported as > 10 µM.
With `CC(C)c1ccc(N2CC(CS(C)(=O)=O)C2)c2cnc(Nc3ccnc(N(C)CCc4cccc(O)c4C=O)n3)cc12` [Compound 45] the IC50 [1] was > 1 µM and the IC50 [2] was > 10 µM.
For `CN1CCN(C(=O)c2ccc3[nH]/c(=N\C(=O)c4ccnc(Oc5cccc(O)c5C=O)c4)n(CC(C)(C)O)c3c2)CC1` [Compound 71], the IC50 [1] was 0.0104 µM and the IC50 [2] was 4.95 µM.
`CC(C)(O)Cn1/c(=N/C(=O)c2ccnc(C#Cc3cccc(O)c3C=O)c2)[nH]c2ccccc21` [Compound 127] was tested, and the IC50 [1] was 0.0382 µM and the IC50 [2] was > 10 µM.
`CN1CCN(Cc2ccc3[nH]/c(=N\C(=O)c4ccnc(C#Cc5cccc(NC(=O)C(F)(F)F)c5C=O)c4)n(CC(C)(C)O)c3c2)CC1` [Compound 101] was tested, and the IC50 [1] was 0.2 µM and the IC50 [2] was 2.57 µM.
